This is an account of results in patent US4847253A, “Antiparkinson ergoline derivatives” (Farmitalia Carlo Erba, priority 1987, dated 1989).

In series [1] the test system is apomorphine-induced climbing. Nature of the series: Antagonism to apomorphine-induced climbing in normal mice. To be noted: for ED50: Mus musculus, po. Format: in vivo. The protocol: The anti-dopaminergic activity in normal mice of the ergoline derivatives according to the invention was assessed by the antagonism to apomorphine-induced climbing (Protais, P. et al., Psychopharmacology, 50, 1, 1976).

For series [2] the following is noted: known side effects, background; cited from earlier work.
The next series concerns 6-OHDA lesioned rats. Nature of the series: Contralateral turning behavior in 6-OHDA lesioned rats. It counts as in vivo, Male (ICR) Wistar rats. The note with it: scored for six hours. The protocol: The profile of dopamine agonists of the compound of the formula I was preliminary discovered by an induction of contralateral turning in rats with unilateral 6-hydroxy dopamine-induced lesions of the dopaminergic nigrostriatal pathway (according to the principles of U. Ungerstedt et al., Brain Research 24 (1970); p. 485).
Male (ICR) Wistar rats (290-310 g) anaesthetized i.p. with 50 mg/kg pentobarbital sodium were placed in a Stoelting stereotaxis frame and unilaterally injected with 6-hydroxy-dopamine (6-OHDA) in substantia nigra, pars compacta (8 μg of free base in 4 μl of saline kept ice cold with 0.2% ascorbic acid at the rate of 1 μl/min.). The neurotoxin was injected via a 10 μl Hamilton syringe under the following coordinates: A, 3.7 mm anterior to interaural line; V. 2.2 mm dorsal to interaural line; L, 2.2 mm from midline, according to Paxinos and Watson (The rat brain in stereotaxic coordinates. Academic Press, Sydney, Australia, 1982).
The needle was left in place 5 minutes further before being slowly withdrawn.
Following recovery from anaesthesia, rats were housed in a cage and given access to food and water ad libitum. After a 3 week recovery, rats were injected with apomorphine (0.5 mg/kg s.c.) and immediately put in automated rotometer bowls with a printing unit for 3 hours.
Only rats showing contralateral turning behavior totalling at least 250 complete turns within the control time, were used for the test with the compounds.
The test compounds were injected subcutaneously and rotational behavior scored each time for six hours.
All tested compounds were administered in a fixed volume (2 ml/kg body weight).

The next series relates to MPTP treated monkeys. Nature of the series: MPTP-induced parkinsonism in monkey model. It counts as in vivo, Marmosets and cynomolgus. An excerpt: In nonhuman primates MPTP (1-methyl-4-phenyl-1,2,3,6-tetrahydropyridine) selectively destroys dopaminergic neurons in the substantia nigra pars compacta as has been shown in different primate species (1) (2) including the common marmoset and cynomolgus.
Repeated administration of MPTP produces varying degrees of akinesia or bradykinesia accompanied by rigidity of limbs, loss of vocalization and postural tremor.
Marmosets and cynomolgus were employed in these experiments. Each animal was administered a variable dosage regime showing them to have an individual susceptibility to MPTP according to Jenner et al. (3).
For the marmoset the cumulative dose was between 11-29 mg/kg i.p. over time courses of 4-10 days for three marmosets and 10-12 mg/kg i.p. for two cynomolgus in 4 days. All the monkeys were severely affected, completely akinetic and rigid with loss of vocalization, and blink reflex, with some postural tremor and were rendered unable to eat by themselves. After two or three days of wash-out to avoid the acute effect of MPTP administration, compound FCE 23884 was injected subcutaneously once a day starting from the dose 0.1 mg/kg up to 2 mg/kg.
Saline was administered in alternate fashion every three treatements to avoid the normal described improvement after the suspension of MPTP administration.

Another series has as its system Reserpine-Treated Mice. Nature of the series: Locomotor activity in reserpine-treated mice. The note with it: for No. of counts in 85 min.: reserpine 5 mg/kg i.p. pretreated; for locomotor activity in akinetic reserpinized mice: result in words, FCE 23884 at 1 mg/kg s.c. It counts as in vivo, Male mice, Crl:CD-1 (ICR) BR strain. Here is the method: Male mice, (22-25 g) of the Crl:CD^R -1 (ICR) BR strain, were used. Injection volume for drugs was 0.5 ml/100 g body weight. Locomotor activity in mice was examined from 5 up to 90 min. by use of two "Columbus activity Meters" placing 5 animals per cage after each treatment. Comparison was made with reserpine treated animals (5 mg/kg i.p.) receiving saline (controls).
Groups of five mice were used each time. Eighteen hours reserpine pretreated mice were subcataneously injected with the test compound or apomorphine or saline.
Five minutes later, the animals were tested for locomotor activity according D. Hinzen et al., European Journal of Pharmacology 131 (1986) 75-86.

Another series has as its system non-MPTP treated monkeys. Nature of the series: Behavior in non-MPTP treated monkeys. Format: in vivo. To be noted: s.c.

“Also recorded” adds a separate entry of the source.

As to `CC(C)C[C@H]1C(=O)N2CCC[C@H]2[C@]2(O)O[C@](NC(=O)[C@@H]3C=C4c5cccc6[nH]c(Br)c(c56)C[C@H]4N(C)C3)(C(C)C)C(=O)N12` [Bromocriptine, reference compound], in series [1] (p.o.), the “Apomorphine antagonism (ED50)” value is on record as “Inactive at 10 mg/kg”. Further, the adverse effects result in series [2] is “emesis, hypotension, cardiac arrhythmia, digital vasospasm in cold weather, conjunctival irritation, diplopia, nasal stuffiness, constipation and syndrome of bilateral red, tender edema of the lower limbs and neuroendocrine alterations”. In addition, in the series with 6-OHDA lesioned rats (1.0 mg/kg s.c.), the “No. of contralateral turns (X) in turning rats” value (from here on “No. of contralateral turns (X)”) is 1922.3 and the “Turning rats/Treated rats” value is reported as 6/9.
Regarding `CN1C(=O)CN(C[C@@H]2C[C@@H]3c4cccc5[nH]cc(c45)C[C@H]3N(C)C2)CC1=O` [FCE 23710, 6-Methyl-8β-(3,5-dioxo-4-methyl-piperazin-1-yl-methyl)-ergoline], the 50% effect level in series [1] (ED50) was put at a dose of 2.2 mg/kg. In the series with 6-OHDA lesioned rats (1.0 mg/kg s.c.), the “No. of contralateral turns (X)” value is on record as 1829.2 and the “Turning rats/Treated rats” value is 4/4.
For the compound `CN1C[C@H](CN2CC(=O)NC(=O)C2)C=C2c3cccc4[nH]cc(c34)C[C@H]21` [FCE 23884, 6-Methyl-9,10-didehydro-8β-(3,5-dioxo-piperazin-1-yl-methyl)-ergoline], the “reversal of akinesia, time of onset” value worked out at 5 min in the series on MPTP treated monkeys (highest dose, 2 mg/kg s.c.) and 30 min in the series with MPTP treated monkeys (lowest dose, 0.1 mg/kg s.c.). Further, the “effect in lesioned / MPTP treated monkeys” value in the series with MPTP treated monkeys (s.c.) is “dopaminergic effect in lesioned animals; also recorded: dopaminergic agent in the MPTP treated monkeys”. Besides, the Reversal of akinesia entry in the series on MPTP treated monkeys (s.c. once a day, 0.1 mg/kg up to 2 mg/kg) is “Reversal of akinesia in a dose-dependent fashion was observed”. Also, in series [1], the ED50 (usually the midpoint of the dose-response relation) is 0.5 mg/kg. Also, the “No. of counts in 85 min.” value in the series with Reserpine-Treated Mice (1.0 mg/kg s.c.) was determined as 625. Moreover, the “locomotor activity in akinetic reserpinized mice” value in the series with Reserpine-Treated Mice is “elicits locomotor activity as does apomorphine”. Further, the “behavioral effect in non-MPTP treated monkeys” value in the series on non-MPTP treated monkeys is “sedative effect in a dose-dependent fashion; also recorded: antidopaminergic in non MPTP-treated monkeys”. For the same compound, the “No. of contralateral turns (X)” value in the series with 6-OHDA lesioned rats (0.1 mg/kg s.c.) was 1317.5; with 6-OHDA lesioned rats (0.5 mg/kg s.c.) it was 2591.7; in the series with 6-OHDA lesioned rats (1.0 mg/kg s.c.), 2146. In addition, the “Turning rats/Treated rats” value was 9/10 with 6-OHDA lesioned rats (0.1 mg/kg s.c.), 10/10 in the series on 6-OHDA lesioned rats (0.5 mg/kg s.c.) and 5/5 in the series with 6-OHDA lesioned rats (1.0 mg/kg s.c.).
`CN1C[C@H](CN2CC(=O)NC(=O)C2)C[C@@H]2c3cccc4c3c(cn4C)C[C@H]21` [FCE 23952, 1,6-Dimethyl-8β-(3,5-dioxo-piperazin-1-yl-methyl)-ergoline] showed a 50% effective dose (ED50) in series [1] of 0.9 mg/kg. Besides, in the series with 6-OHDA lesioned rats (1.0 mg/kg s.c.), the “No. of contralateral turns (X)” value is 710.5 and the “Turning rats/Treated rats” value is 4/4.
For `CN1CCc2cccc3c2[C@H]1Cc1ccc(O)c(O)c1-3` [apomorphine, reference compound], in the series with Reserpine-Treated Mice (0.05 mg/kg s.c.), the “No. of counts in 85 min.” value is 413. The “locomotor activity in akinetic reserpinized mice” value in the series with Reserpine-Treated Mice is “elicits locomotor activity”.
